Structures are written as SMILES.

Sequence of Muscarinic acetylcholine receptor M5 (Rattus norvegicus) (P08911 whole entry, looked up): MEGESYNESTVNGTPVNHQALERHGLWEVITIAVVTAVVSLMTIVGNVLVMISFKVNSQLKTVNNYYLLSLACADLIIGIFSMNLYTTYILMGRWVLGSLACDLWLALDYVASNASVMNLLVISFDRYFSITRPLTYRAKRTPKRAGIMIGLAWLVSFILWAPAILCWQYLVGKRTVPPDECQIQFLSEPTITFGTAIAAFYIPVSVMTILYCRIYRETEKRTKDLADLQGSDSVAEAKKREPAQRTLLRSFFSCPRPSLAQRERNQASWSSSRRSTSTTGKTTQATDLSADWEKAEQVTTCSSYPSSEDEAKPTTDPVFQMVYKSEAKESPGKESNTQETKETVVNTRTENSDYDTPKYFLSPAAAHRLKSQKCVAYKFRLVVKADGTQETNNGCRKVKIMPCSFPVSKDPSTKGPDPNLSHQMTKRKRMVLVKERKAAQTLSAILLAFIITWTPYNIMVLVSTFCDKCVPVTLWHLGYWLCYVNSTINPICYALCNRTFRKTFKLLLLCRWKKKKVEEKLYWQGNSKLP

The test has as its target Muscarinic acetylcholine receptor M5 (Rattus norvegicus) (UniProt P08911). In words: species ortholog inhibition of rat M5 response – cell-based, CHO-K1, Fluo-4 calcium flux, selectivity assay for human M5 NAM project (AID 743104). To be noted: CHO-K1 rat M5, Fluo-4 calcium flux, ACh EC20.
In general, IC50 refers to the midpoint of a concentration-inhibition curve. `O=C(c1cc(F)cc(F)c1)N1CCN2C(=O)c3ccccc3C12c1ccc(Cl)cc1` (stereo not drawn): the IC50 was 3.54 µM.

`O=C(c1ccc(F)c(F)c1)N1CCN2C(=O)c3ccccc3C12c1ccccc1` (stereo not drawn): the IC50 is 2 µM.

As to `O=C(c1ccc(F)cc1)N1CCN2C(=O)c3ccccc3C12c1ccccc1` (stereo not drawn), the IC50 was 6.21 µM.

The record behind these values is PubChem BioAssay AID743104 (Vanderbilt Specialized Chemistry Center, 2013).
